The target in one test is human NAMPT enzyme (His-hNAMPT) (Homo sapiens (Human), UniProt P43490). Nature of the test: NAMPT enzymatic inhibition assay (fluorescence, NADH product). It counts as biochemical. Conditions: [BPS]; read-out: NAMPT IC50 (μM) [BPS].
Chain of human NAMPT enzyme (His-hNAMPT) (P43490 whole entry): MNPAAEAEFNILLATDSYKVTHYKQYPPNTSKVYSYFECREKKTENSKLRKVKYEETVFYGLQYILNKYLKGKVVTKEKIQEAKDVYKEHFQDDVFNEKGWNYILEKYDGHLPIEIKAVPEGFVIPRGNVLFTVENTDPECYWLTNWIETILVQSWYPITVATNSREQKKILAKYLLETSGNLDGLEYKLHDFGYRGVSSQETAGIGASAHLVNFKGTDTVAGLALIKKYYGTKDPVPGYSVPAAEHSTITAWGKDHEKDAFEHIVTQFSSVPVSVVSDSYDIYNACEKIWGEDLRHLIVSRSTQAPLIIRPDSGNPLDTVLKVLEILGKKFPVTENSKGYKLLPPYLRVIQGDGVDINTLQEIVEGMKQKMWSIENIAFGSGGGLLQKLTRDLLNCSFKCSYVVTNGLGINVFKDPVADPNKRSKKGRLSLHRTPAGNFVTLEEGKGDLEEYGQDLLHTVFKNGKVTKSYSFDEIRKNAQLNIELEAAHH
For orientation: IC50 means the point on the concentration scale where inhibition reaches its midpoint. Regarding `Nc1ccc(/C=C/C(=O)NCC[C@@H]2[C@H]3CN(c4ccccc4)C[C@@H]23)cn1` [Example 192, (E)-3-(6-aminopyridin-3-yl)-N-(2-((1R,5S,6s)-3-phenyl-3-azabicyclo[3.1.0]hexan-6-yl)ethyl)acrylamide], the half-inhibitory concentration (IC50) is 0.01 to 0.49 µM.

Staying with this test, now noted: [HDB]; read-out: NAMPT IC50 (μM) [HDB].
As to `O=C(NCC[C@@H]1[C@H]2CN(c3ccccc3)C[C@@H]12)c1cc2ccncc2o1` [Example 193, N-(2-((1R,5S,6s)-3-phenyl-3-azabicyclo[3.1.0]hexan-6-yl)ethyl)furo[2,3-c]pyridine-2-carboxamide], the IC50 is less than 0.01 µM.

`O=C(NCC[C@@H]1[C@H]2CN(c3ncccn3)C[C@@H]12)c1cc2cnccc2[nH]1` [Example 194, N-(2-((1R,5S,6s)-3-(pyrimidin-2-yl)-3-azabicyclo[3.1.0]hexan-6-yl)ethyl)-1H-pyrrolo[3,2-c]pyridine-2-carboxamide]: the IC50 lay in the range of 0.01 to 0.49 µM.

With `O=C(/C=C/c1cccnc1)NCC[C@@H]1[C@H]2CN(c3ccc(F)cc3)C[C@@H]12` [Example 195, (E)-N-(2-((1R,5S,6s)-3-(4-fluorophenyl)-3-azabicyclo[3.1.0]hexan-6-yl)ethyl)-3-(pyridin-3-yl)acrylamide], the 50% inhibitory concentration (IC50) was in the range of 0.01 to 0.49 µM.

For `O=C(NCC[C@@H]1[C@H]2CN(c3ccc(F)cc3)C[C@@H]12)c1cc2ccncc2o1` [Example 196, N-(2-((1R,5S,6s)-3-(4-fluorophenyl)-3-azabicyclo[3.1.0]hexan-6-yl)ethyl)furo[2,3-c]pyridine-2-carboxamide], the IC50 fell in the range of 0.01 to 0.49 µM.

For the compound `O=C(NCC[C@@H]1[C@H]2CN(c3cccc(F)c3)C[C@@H]12)c1cc2ccncc2o1` [Example 197, N-(2-((1R,5S,6s)-3-(3-fluorophenyl)-3-azabicyclo[3.1.0]hexan-6-yl)ethyl)furo[2,3-c]pyridine-2-carboxamide], the IC50 was 0.01 to 0.49 µM.

For `O=C(NCC[C@@H]1[C@H]2CN(c3ccccc3)C[C@@H]12)c1cc2cnccc2[nH]1` [Example 198, N-(2-((1R,5S,6s)-3-phenyl-3-azabicyclo[3.1.0]hexan-6-yl)ethyl)-1H-pyrrolo[3,2-c]pyridine-2-carboxamide], the IC50 is 0.01 to 0.49 µM.

For `O=C(NCC[C@@H]1[C@H]2CN(c3ncccn3)C[C@@H]12)c1cnc2nccn2c1` [Example 199, N-(2-((1R,5S,6s)-3-(pyrimidin-2-yl)-3-azabicyclo[3.1.0]hexan-6-yl)ethyl)imidazo[1,2-a]pyrimidine-6-carboxamide], the half-inhibitory concentration (IC50) is 0.01 to 0.49 µM.

In the case of `O=C(NCC[C@@H]1[C@H]2CN(c3ncccn3)C[C@@H]12)c1cc2ccncc2s1` [Example 200, N-(2-((1R,5S,6s)-3-(pyrimidin-2-yl)-3-azabicyclo[3.1.0]hexan-6-yl)ethyl)thieno[2,3-c]pyridine-2-carboxamide], the IC50 was 0.01 to 0.49 µM.

In the case of `Nc1ccc(/C=C/C(=O)NCC[C@@H]2[C@H]3CN(c4cccc(F)c4)C[C@@H]23)cn1` [Example 201, (E)-3-(6-aminopyridin-3-yl)-N-(2-((1R,5S,6s)-3-(3-fluorophenyl)-3-azabicyclo[3.1.0]hexan-6-yl)ethyl)acrylamide], the IC50 is less than 0.01 µM.

With `Nc1ccc(/C=C/C(=O)NCC[C@@H]2[C@H]3CN(c4cccc(C(F)(F)F)c4)C[C@@H]23)cn1` [Example 202, (E)-3-(6-aminopyridin-3-yl)-N-(2-((1R,5S,6s)-3-(3-(trifluoromethyl)phenyl)-3-azabicyclo[3.1.0]hexan-6-yl)ethyl)acrylamide], the concentration for half-maximal inhibition (IC50) was 0.01 to 0.49 µM.

`O=C(NCC[C@@H]1[C@H]2CN(c3nc(Cl)ncc3F)C[C@@H]12)c1ccc2nccn2c1` [Example 203, N-(2-((1R,5S,6s)-3-(2-chloro-5-fluoropyrimidin-4-yl)-3-azabicyclo[3.1.0]hexan-6-yl)ethyl)imidazo[1,2-a]pyridine-6-carboxamide]: the IC50 fell in the range of 0.01 to 0.49 µM.

Regarding `O=C(NCC[C@@H]1[C@H]2CN(c3nc(Cl)ncc3F)C[C@@H]12)c1cc2cnccc2[nH]1` [Example 204, N-(2-((1R,5S,6s)-3-(2-chloro-5-fluoropyrimidin-4-yl)-3-azabicyclo[3.1.0]hexan-6-yl)ethyl)-1H-pyrrolo[3,2-c]pyridine-2-carboxamide], the IC50 was 0.01 to 0.49 µM.

Regarding `Nc1ccc(/C=C/C(=O)NCC[C@@H]2[C@H]3CN(c4nc(Cl)ncc4F)C[C@@H]23)cn1` [Example 206, (E)-3-(6-aminopyridin-3-yl)-N-(2-((1R,5S,6s)-3-(2-chloro-5-fluoropyrimidin-4-yl)-3-azabicyclo[3.1.0]hexan-6-yl)ethyl)acrylamide], the concentration for half-maximal inhibition (IC50) fell in the range of 0.01 to 0.49 µM.

Regarding `O=C(CCc1cccnc1)NCC[C@@H]1[C@H]2CN(c3nc(Cl)ncc3F)C[C@@H]12` [Example 207, N-(2-((1R,5S,6s)-3-(2-chloro-5-fluoropyrimidin-4-yl)-3-azabicyclo[3.1.0]hexan-6-yl)ethyl)-3-(pyridin-3-yl)propanamide], the IC50 is less than 0.01 µM.

Consider `O=C(NCC[C@@H]1[C@H]2CN(c3nc(Cl)ncc3F)C[C@@H]12)c1cc(-c2cccnc2)on1` [Example 208, N-(2-((1R,5S,6s)-3-(2-chloro-5-fluoropyrimidin-4-yl)-3-azabicyclo[3.1.0]hexan-6-yl)ethyl)-5-(pyridin-3-yl)isoxazole-3-carboxamide], for which the IC50 was less than 0.01 µM.

For `O=C(/C=C/c1ccccn1)NCC[C@@H]1[C@H]2CN(c3nc(Cl)ncc3F)C[C@@H]12` [Example 209, (E)-N-(2-((1R,5S,6s)-3-(2-chloro-5-fluoropyrimidin-4-yl)-3-azabicyclo[3.1.0]hexan-6-yl)ethyl)-3-(pyridin-2-yl)acrylamide], the half-inhibitory concentration (IC50) lay within 0.01 to 0.49 µM.

Regarding `O=C(/C=C/c1ccccc1)NCC[C@@H]1[C@H]2CN(c3nc(Cl)ncc3F)C[C@@H]12` [Example 210, N-(2-((1R,5S,6s)-3-(2-chloro-5-fluoropyrimidin-4-yl)-3-azabicyclo[3.1.0]hexan-6-yl)ethyl)cinnamamide], the concentration for half-maximal inhibition (IC50) fell in the range of 0.01 to 0.49 µM.

Consider `O=C(/C=C/c1ccc(O)nc1)NCC[C@@H]1[C@H]2CN(c3nc(Cl)ncc3F)C[C@@H]12` [Example 211, (E)-N-(2-((1R,5S,6s)-3-(2-chloro-5-fluoropyrimidin-4-yl)-3-azabicyclo[3.1.0]hexan-6-yl)ethyl)-3-(6-hydroxypyridin-3-yl)acrylamide], for which the IC50 lay within 0.01 to 0.49 µM.

As for `COc1ccc(/C=C/C(=O)NCC[C@@H]2[C@H]3CN(c4nc(Cl)ncc4F)C[C@@H]23)cn1` [Example 212, (E)-N-(2-((1R,5S,6s)-3-(2-chloro-5-fluoropyrimidin-4-yl)-3-azabicyclo[3.1.0]hexan-6-yl)ethyl)-3-(6-methoxypyridin-3-yl)acrylamide], the IC50 lay within 0.01 to 0.49 µM.

As to `O=C(NCC[C@@H]1[C@H]2CN(c3nc(Cl)ncc3F)C[C@@H]12)c1cnc2nccn2c1` [Example 213, N-(2-((1R,5S,6s)-3-(2-chloro-5-fluoropyrimidin-4-yl)-3-azabicyclo[3.1.0]hexan-6-yl)ethyl)imidazo[1,2-a]pyrimidine-6-carboxamide], the IC50 is 0.01 to 0.49 µM.

With `O=C(/C=C/c1ccncc1)NCC[C@@H]1[C@H]2CN(c3nc(Cl)ncc3F)C[C@@H]12` [Example 214, (E)-N-(2-((1R,5S,6s)-3-(2-chloro-5-fluoropyrimidin-4-yl)-3-azabicyclo[3.1.0]hexan-6-yl)ethyl)-3-(pyridin-4-yl)acrylamide], the IC50 was 0.01 to 0.49 µM.

On to `O=C(CCc1ccncc1)NCC[C@@H]1[C@H]2CN(c3nc(Cl)ncc3F)C[C@@H]12` [Example 215, N-(2-((1R,5S,6s)-3-(2-chloro-5-fluoropyrimidin-4-yl)-3-azabicyclo[3.1.0]hexan-6-yl)ethyl)-3-(pyridin-4-yl)propanamide], for which the IC50 lay within 1 to 29 µM.

On to `O=C(NCC[C@@H]1[C@H]2CN(c3nc(Cl)ncc3F)C[C@@H]12)c1ccc2ncnn2c1` [Example 217, N-(2-((1R,5S,6s)-3-(2-chloro-5-fluoropyrimidin-4-yl)-3-azabicyclo[3.1.0]hexan-6-yl)ethyl)-[1,2,4]triazolo[1,5-a]pyridine-6-carboxamide], for which the half-maximal inhibitory concentration (IC50) lay within 0.01 to 0.49 µM.

`O=C(CCc1ccccn1)NCC[C@@H]1[C@H]2CN(c3nc(Cl)ncc3F)C[C@@H]12` [Example 218, N-(2-((1R,5S,6s)-3-(2-chloro-5-fluoropyrimidin-4-yl)-3-azabicyclo[3.1.0]hexan-6-yl)ethyl)-3-(pyridin-2-yl)propanamide]: the IC50 fell in the range of 0.01 to 0.49 µM.

With `O=C(COc1cccnc1)NCC[C@@H]1[C@H]2CN(c3nc(Cl)ncc3F)C[C@@H]12` [Example 219, N-(2-((1R,5S,6s)-3-(2-chloro-5-fluoropyrimidin-4-yl)-3-azabicyclo[3.1.0]hexan-6-yl)ethyl)-2-(pyridin-3-yloxy)acetamide], the IC50 lay within 0.01 to 0.49 µM.

For `O=C(NCC[C@@H]1[C@H]2CN(c3nc(Cl)ncc3F)C[C@@H]12)c1cc2c(nc3sccn32)s1` [Example 220, N-(2-((1R,5S,6s)-3-(2-chloro-5-fluoropyrimidin-4-yl)-3-azabicyclo[3.1.0]hexan-6-yl)ethyl)thieno[2′,3′:4,5]imidazo[2,1-b]thiazole-2-carboxamide], the IC50 was in the range of 0.01 to 0.49 µM.

For the compound `O=C(NCC[C@@H]1[C@H]2CN(c3nc(Cl)ncc3F)C[C@@H]12)c1cc2ccncc2o1` [Example 221, N-(2-((1R,5S,6s)-3-(2-chloro-5-fluoropyrimidin-4-yl)-3-azabicyclo[3.1.0]hexan-6-yl)ethyl)furo[2,3-c]pyridine-2-carboxamide], the IC50 was 0.01 to 0.49 µM.

For `O=C(NCC[C@@H]1[C@H]2CN(c3nc(Cl)ncc3F)C[C@@H]12)c1cc2ccncc2s1` [Example 223, N-(2-((1R,5S,6s)-3-(2-chloro-5-fluoropyrimidin-4-yl)-3-azabicyclo[3.1.0]hexan-6-yl)ethyl)thieno[2,3-c]pyridine-2-carboxamide], the IC50 fell in the range of 0.01 to 0.49 µM.

`O=C(NCC[C@@H]1[C@H]2CN(c3nc(Cl)ncc3F)C[C@@H]12)c1cnc2[nH]ncc2c1` [Example 224, N-(2-((1R,5S,6s)-3-(2-chloro-5-fluoropyrimidin-4-yl)-3-azabicyclo[3.1.0]hexan-6-yl)ethyl)-1H-pyrazolo[3,4-b]pyridine-5-carboxamide]: the IC50 lay within 0.01 to 0.49 µM.

`O=C(NCC[C@@H]1[C@H]2CN(c3nc(Cl)ncc3F)C[C@@H]12)N1Cc2ccccc2C1` [Example 225, N-(2-((1R,5S,6s)-3-(2-chloro-5-fluoropyrimidin-4-yl)-3-azabicyclo[3.1.0]hexan-6-yl)ethyl)isoindoline-2-carboxamide]: the IC50 is less than 0.01 µM.

The values above are taken from patent publication US12421210B2, “Fused bicyclic heterocycles as therapeutic agents” (NEW YORK UNIVERSITY, priority 2018, dated 2025).
